Where two headings read alike, the source gives them in different places.
What was measured:
[1] = test system: NALM-6; assay: MTT cytotoxicity assay, NALM-6; assay type: cell-based, human; details: read-out: IC50 against NALM-6
Experimental: (§1) Human B-lineage acute lymphoblastic leukemia (ALL) cell line NALM-6 and T-lineage ALL/lymphoma cell line MOLT-3 were obtained from American Type Culture Collection (Manassas, Va.). Cell lines were propagated in RPMI 1640 supplemented with 10% FCS, 4 mM glutamine, 100 units/ml penicillin G, and […] streptomycin sulfate. All tissue culture reagents were obtained from Life Technologies Inc. (Life Technologies, Inc., Gaithersburg, Md.). Cell lines were cultivated for a minimum of two passages after thawing prior to experimentation.
(§2) The cytotoxicity of the compounds were tested against human ALL cell lines using MTT assays (Roche Molecular Biochemicals, Indianapolis, Ind.), as described previously R. K. Narla et al., 1998, Clin Cancer Res 4:1405-14). Briefly, exponentially growing tumor cells were seeded into a 96-well plate at a density of 4×10^4 cells/well and incubated in medium containing the cinchona alkaloid compounds at concentrations ranging from 0.7 to 100 μM for 48 h at 37° C. in a humidified 5% CO2 atmosphere. To each well, 10 μL of MTT (final concentration, 0.5 mg/ml) was added, and the plates were incubated at 37° C. for 4 h to allow MTT to form formazan crystals by reacting with metabolically active cells. The formazan crystals were solubilized overnight at 37° C. in a solution containing 10% SDS and 0.01 M HCl. The absorbance of each well was measured in a microplate reader (Labsystems) at 540 nm and a reference wavelength of 690 nm. To translate the A540 values into the number of live cells in each well, the A540 values were compared to those on standard A540 versus cell number curves generated for each cell line. The percentage of survival was calculated using the formula: % survival=[Live cell number (test)/Live cell number (control)]×100. The IC50 values were calculated by nonlinear regression analysis using the graphed Prism Software version 2.0 (GraphPad Software, Inc., San Diego, Calif.).

[2] = test system: MOLT-3; assay: MTT cytotoxicity assay, MOLT-3; assay type: cell-based, human; details: read-out: IC50 against MOLT-3
Experimental: as §1, §2

[3] = test system: mammary tumors of MMTV/neu transgenic mice; assay: MMTV/neu transgenic mouse model of HER2+ breast cancer; assay type: in vivo; details: 9-week observation; for tumor shrinkage and tumor growth: AP-8 2 mg/kg i.p. twice daily, paclitaxel 6.7 mg/kg, gemcitabine 33.7 mg/kg; for prevention of tumor progression compared with AP-8: paclitaxel 6.7 mg/kg i.p., gemcitabine 33.7 mg/kg i.p.
Source text: The predictive value of genetically engineered mouse (GEM) models to predict the clinical effectiveness of anti-cancer drugs is well established (Richmond A, Su Y. Mouse xenograft models vs GEM models for human cancer therapeutics. Dis Model Mech. 2008; 1(2-3):78-82. doi:10.1241-2/dmm.0.000976). We used the transgenic mouse model of HER2+ chemotherapy-resistant breast cancer to examine the in vivo anti-cancer activity of AP-8. Overexpression of the wild type Neu in the mammary glands of transgenic mice induces metastatic breast cancer. Accordingly, in the MMTV/Neu transgenic strain, the wild-type neu is overexpressed in the mammary gland under the control of the MMTV long terminal repeat. This animal model has been used to analyze the efficacy of new therapeutic approaches to prevent or treat Her2/neu overexpressing malignancies (Uckun, Dibirdik). MMTV/Neu transgenic mice [FVB/N-TgN(MMTV/neu)202MUL; Jackson Laboratory, Bar Harbor, Me.] were bred to produce multiple litters in a controlled SPF environment (12 h light/12 h-dark photoperiod, 22±1° C., 60±10% relative humidity). All mice were housed in microisolator cages (Lab Products, Inc., Maywood, N.Y., USA) containing autoclaved bedding in a controlled specific pathogen-free (SPF) environment (12 h light/12 h-dark photoperiod, 22±1° C., 60±10% relative humidity). Animal studies were approved by the institutional Animal Care and Use Committee of Drug Discovery Enterprises and all animal care procedures conformed to the Guide for the Care and Use of Laboratory Animals of the National Research Council. The genotype of mice was confirmed by multiplex polymerase chain reaction (PCR) tests as previously reported (F. M. Uckun et al., 2007, Bioorganic Med. Chem. 15:800-14; I. Dibirdik et al., 2010, J Nanomed and Nanotechnol. 1:001-4).
Neu transgenic mice carrying one or more tumors were randomly placed in the study. For the evaluation of tumor kinetics, tumor-bearing mice were randomly assigned to either vehicle control or treatment groups. Tumor growth was determined by the measurement of tumors with a caliper in three dimensions three days a week and expressed as tumor volume in cubic millimeters (mm^3). Tumor volumes were calculated using the formula for the volume of a prolate spheroid, V=4/3×3.14×length/2×width/2×depth/2. Due to the large heterogeneity in transgenic tumor volumes on day 0, tumor growth for each mouse was normalized to the starting volume for that particular tumor. Therefore, each mouse also served as its own control, and the tumor growth curves were generated to show the rate of change in tumor volumes.
AP-8 (50 μg˜2 mg/kg in 50 μL DMSO as vehicle) (10 mice, 12 target mammary tumors, Initial average tumor volume=787±125 mm^3) was administered by twice daily intraperitoneal injections on 5 consecutive days per week. Paclitaxel (10 mice, 13 target mammary tumors, Initial average tumor volume=554±79 mm^3) was administered intraperitoneally on days 1, 3, and 5 of each week at a dose level of 6.7 mg/kg ([…]). Gemcitabine (13 mice, 18 target mammary tumors, Initial average tumor volume=549±60 mm^3) was administered intraperitoneally on days 1 and 8 every 4 weeks at a dose level of 33.7 mg/kg (˜1 g/m^2). Control mice (8 mice, 10 mammary tumors, Initial average tumor volume=293±61 mm^3) were treated by twice daily intraperitoneal injections of vehicle alone (50 μL DMSO) on 5 consecutive days per week. […]

Row | Compound | IC50 ([1]; 48 h) | IC50 ([2]; 48 h) | further results
1 | 2,4,6-Tri(9-O-cinchonidinyl)pyrimidine [AP-2] | 11.4 µM | 5.8 µM | –
2 | CC[C@@H]1CN2CCC1C[C@@H]2C(Oc1cc(O[C@@H](c2ccnc3ccc(OC)cc23)[C@@H]2CC3CCN2C[C@@H]3CC)nc(OC(c2ccnc3ccc(OC)cc23)[C@H]2CC3CCN2C[C@H]3CC)n1)c1ccnc2ccc(OC)cc12 (some centres unmarked) [AP-7, 2,4,6-Tri (9-O-dihydroquininyl)pyrimidine] | – | – | IC50 ([1]; Homo sapiens, NALM-6, 48 h): 3.3 µM; IC50 ([2]; Homo sapiens, MOLT-3, 48 h): 3.5 µM
3 | 2,4,6-Tri (9-O-dihydrocinchonidinyl)pyrimidine [AP-6] | 6 µM | 11.4 µM | –
4 | CC(=O)O[C@H]1C(=O)[C@@]2(C)[C@H]([C@H](OC(=O)c3ccccc3)[C@]3(O)C[C@H](OC(=O)[C@H](O)[C@@H](NC(=O)c4ccccc4)c4ccccc4)C(C)=C1C3(C)C)[C@]1(OC(C)=O)CO[C@@H]1C[C@@H]2O [paclitaxel, Paclitaxel] | – | – | tumor shrinkage and tumor growth [3]: Neither paclitaxel nor gemcitabine at the clinically applicable dose levels used in these experiments induced tumor shrinkage; prevention of tumor progression compared with AP-8 [3]: less effective than AP-8 in preventing tumor progression
5 | C=CC1CN2CCC1CC2C(Oc1cc(OC(c2ccnc3ccc(OC)cc23)C2CC3CCN2CC3C=C)nc(OC(c2ccnc3ccc(OC)cc23)C2CC3CCN2CC3C=C)n1)c1ccnc2ccc(OC)cc12 (single isomer, unassigned) [AP-3, 2,4,6-Tri(9-O-quininyl)pyrimidine] | 3.6 µM | 4.5 µM | –
6 | C=CC1CN2CCC1CC2C(Oc1cc(OC(c2ccnc3ccc(OC)cc23)C2CC3CCN2CC3C=C)nc(OC(c2ccnc3ccc(OC)cc23)C2CC3CCN2CC3C=C)n1)c1ccnc2ccc(OC)cc12 (single isomer, unassigned) [AP-4, 2,4,6-Tri (9-O-quinidinyl)pyrimidine] | 2.8 µM | 3.1 µM | –
7 | Nc1ccn([C@@H]2O[C@H](CO)[C@@H](O)C2(F)F)c(=O)n1 [gemcitabine, Gemcitabine] | – | – | tumor shrinkage and tumor growth [3]: Neither paclitaxel nor gemcitabine at the clinically applicable dose levels used in these experiments induced tumor shrinkage; prevention of tumor progression compared with AP-8 [3]: less effective than AP-8 in preventing tumor progression
